# According to US10420815B2, “Combinational therapy for synergistic inhibition of gram-positive and gram-negative bacteria” (priority 2015, dated 2019):
# Like-named read-outs stand apart in the source and are kept apart here.
# What was measured:
# Type in all cases: cell-based, Staphylococcus aureus
# MRSA 3823 = test: microbe, parasite or virus in culture; settings: Staphylococcus aureus
# Description: (§1) MRSA (ATCC 33593), MSSA (ATCC 29213), and MRSA USA300 (BAA-1680) strains were purchased from the American Type Culture Collection (ATCC; Manassas, Va.). Eight clinical isolates of MRSA were obtained from the Culture Collection of Antimicrobial Resistant Microbes, Korea National Research Resource Center (KNRRC). Salmonella enterica Typhimurium LT2 was purchased from ATCC, and Escherichia coli O157:H7 is a kind gift from Dr. Sangryeol Ryu (Seoul National University, South Korea). All S. aureus strains were maintained in Trypticase Soy (TS) medium, and E. coli O157:H7 and Salmonella were routinely grown aerobically on Luria-Bertani (LB) media at 37° C. For measuring growth kinetics, an overnight culture of MRSA in Mueller-Hinton (MH) broth was diluted 100-fold in fresh MH broth and cultured until early exponential phase. The culture (200 μl) was transferred to each well of a sterile 96-well plate and incubated at 37° C. with bacitracin alone, alkyl gallate alone, and combination of bacitracin/alkyl gallates at various concentrations. The optical density at 600 nm (OD600) was measured every hour with FLUOstar® Omega (BMG Labtech, Germany).
# (§2) Broth micro dilution assays were performed to determine the minimum inhibitory concentrations (MIC) accordance to the M7-A7 protocol of the Clinical and Laboratory Standards Institute (CLSI) guidelines^28. The susceptibility test was carried out with an initial bacterial inoculum of 1.5×10^5 CFU ml^−1. Alkyl gallates and bacitracin were serially diluted in a polystyrene 96 well plate and the plate was incubated at 37° C. for 24 h. Minimum bactericidal concentration (MBC) was determined by spotting 10 μl of cultures from MIC tests onto MH agar and incubated aerobically at 37° C.
# MRSA 3865 = test: microbe, parasite or virus in culture; settings: Staphylococcus aureus
# Description: as §1, §2
# MRSA 3903 = test: microbe, parasite or virus in culture; settings: Staphylococcus aureus
# Description: as §1, §2
# MRSA 3799 = test: microbe, parasite or virus in culture; settings: Staphylococcus aureus
# Description: as §1, §2
# MRSA 3A585 = test: microbe, parasite or virus in culture; settings: Staphylococcus aureus
# Description: as §1, §2
# MRSA 3795 = test: microbe, parasite or virus in culture; settings: Staphylococcus aureus
# Description: as §1, §2
# MRSA 3095 = test: microbe, parasite or virus in culture; settings: Staphylococcus aureus
# Description: as §1, §2
# MRSA 3876 = test: microbe, parasite or virus in culture; settings: Staphylococcus aureus
# Description: as §1, §2
# MRSA USA300 (BAA-1680) [1] = test: microbe, parasite or virus in culture; settings: for bactericidal activity in combination with bacitracin: FIG. 2; for MIC / MBC: agent alone
# Description: as §1, §2
# MRSA USA300 (BAA-1680) [2] = test: Growth kinetics (OD600) with bacitracin, alkyl gallates and combinations; settings: bacitracin 0.001 U to 100 U
# Description: as §1
# USA300 = test: Bacterial membrane permeability (propidium iodide fluorescence); settings: agent alone, sub-MIC levels, EDTA 1 mM
# Experimental: Membrane permeability was determined by measuring fluorescence after exposure of USA300 to propidium iodide as described previously^29. Briefly, USA300 was grown in MH broth to the exponential phase and then diluted to OD600≈0.25. Propidium iodide was mixed with bacteria to a final concentration of 10 μM. […] Fluorescence was monitored at excitation and emission wavelengths of 585 nm and 620 nm, respectively, for 1 h using FLUOstar Omega® (BMG Labtech, Germany). The membrane permeability was calculated by subtracting fluorescence intensity of controls without treatment with phenolic compounds from that of treated samples. EDTA (1 mM) was used as a positive control.
# MRSA (ATCC 33593) = test: microbe, parasite or virus in culture
# Description: as §1, §2
# (§3) MICs were determined with MRSA and methicillin-sensitive S. aureus (MSSA) using a broth dilution method as described above.
# (§4) MRSA and MSSA were cultured overnight with antioxidants (0.5 μg/ml) and bacitracin at various concentrations and 10 μL of the culture was spotted on MH agar plates and incubated aerobically at 37° C. to observe the bacterial viability. The results in FIGS. 9A, 9B, 9C and 9D (photographs of plates) show the Minimal Bactericidal Concentrations (MBCs) for indicated antioxidants. Bacitracin killed MRSA and MSSA at concentrations greater than or equal to 2 μg/mi.
# MSSA (ATCC 29213) = test: MIC (broth dilution) and MBC (spotting) of phenolic antioxidants and bacitracin; settings: for MIC: antioxidant alone
# Description: as §1, §2, §3, §4
# [3] = system: MRSA (normal MRSA strain, not USA300); test: MRSA growth (optical density) with bacitracin and phenolic antioxidants; settings: bacitracin 0.002 μg/mL, antioxidant 0.5 μg/mL; FIG. 6
# Description: as §1
# MRSA were grown with bacitracin (0.002 μg/mL) with antioxidant (as shown) at 0.5 μg/mL.
# FIG. 7A is growth with no added bacitracin or lauryl gallate.
# The optical density of MRSA was measured after 18 h culture with bacitracin (0.002 μg/ml) and antioxidants (as indicated at 0.5 μg/ml). Also measured were controls with no additions, with bacitracin alone and with antioxidant alone. FIGS. 8A, 8B, 8C and 8D are graphs illustrating the results.
# [4] = MRSA 3823 (human/nose), read-out: MIC
# [5] = MRSA 3865 (human/skin), read-out: MIC
# [6] = MRSA 3903 (human/skin), read-out: MIC
# [7] = MRSA 3799 (human/nose), read-out: MIC
# [8] = MRSA 3A585 (human/blood), read-out: MIC
# [9] = MRSA 3795 (human/nose), read-out: MIC
# [10] = MRSA 3095 (human/skin), read-out: MIC
# [11] = MRSA 3876 (human/skin), read-out: MIC
# [12] = Staphylococcus aureus, 24 h, read-out: MIC
# [13] = Staphylococcus aureus, read-out: MBC
# [14] = Staphylococcus aureus, read-out: MIC
SMILES,MIC (MRSA 3823; [4]) [µg/mL],MIC (MRSA 3865; [5]) [µg/mL],MIC (MRSA 3903; [6]) [µg/mL],MIC (MRSA 3799; [7]) [µg/mL],MIC (MRSA 3A585; [8]) [µg/mL],MIC (MRSA 3795; [9]) [µg/mL],MIC (MRSA 3095; [10]) [µg/mL],MIC (MRSA 3876; [11]) [µg/mL],growth inhibition by bacitracin in combination with alkyl gallate (MRSA USA300 (BAA-1680) [2]),MBC (MRSA USA300 (BAA-1680) [1]) [µg/mL],MIC (MRSA USA300 (BAA-1680) [1]) [µg/mL],also measured
"CCCCOC(=O)c1cc(O)c(O)c(O)c1 [Butyl gallate (BG), Butyl gallate]",512,512,512,512,512,512,512,512,significant growth inhibition,–,–,bactericidal activity in combination with bacitracin (MRSA USA300 (BAA-1680) [1]): synergistic antimicrobial activity; MIC (MRSA USA300 (BAA-1680) [1]; [12]): 512 µg/mL; MBC (MRSA USA300 (BAA-1680) [1]; [13]): 1020 µg/mL
"O=C(O)CN(CCN(CC(=O)O)CC(=O)O)CC(=O)O [EDTA, reference compound]",–,–,–,–,–,–,–,–,–,–,–,membrane permeability (USA300): significantly increased membrane permeability
"CC[C@H]1OC(=O)[C@H](C)[C@@H](O[C@H]2C[C@@](C)(OC)[C@@H](O)[C@H](C)O2)[C@H](C)[C@@H](O[C@@H]2O[C@H](C)C[C@H](N(C)C)[C@H]2O)[C@](C)(O)C[C@@H](C)C(=O)[C@H](C)[C@@H](O)[C@]1(C)O [ERY, erythromycin]",≥ 128,≥ 128,≥ 128,≥ 128,≥ 4,≥ 128,≥ 128,≥ 128,–,–,–,–
"CCOC(=O)c1cc(O)c(O)c(O)c1 [Ethyl gallate (EG), ethyl gallate]",> 1020,> 1020,> 1020,> 1020,> 1020,> 1020,> 1020,> 1020,significant growth inhibition,256,128,–
"O=C(O)c1cc(O)c(O)c(O)c1 [Gallic acid, gallic acid]",–,–,–,–,–,–,–,–,–,256,128,MIC (MRSA 3823; MRSA): > 1020 µg/mL; MIC (MRSA 3865; MRSA): > 1020 µg/mL; MIC (MRSA 3903; MRSA): > 1020 µg/mL; MIC (MRSA 3799; MRSA): > 1020 µg/mL; MIC (MRSA 3A585; MRSA): > 1020 µg/mL; MIC (MRSA 3795; MRSA): > 1020 µg/mL; MIC (MRSA 3095; MRSA): > 1020 µg/mL; MIC (MRSA 3876; MRSA): > 1020 µg/mL; MIC (MRSA (ATCC 33593); Staphylococcus aureus): > 1020 µg/mL; MIC (MSSA (ATCC 29213); [14]): > 1020 µg/mL
"COC(=O)c1cc(O)c(O)c(O)c1 [Methyl gallate (MG), methyl gallate]",> 1020,> 1020,> 1020,> 1020,> 1020,> 1020,> 1020,> 1020,significant growth inhibition,256,128,–
"Cc1onc(-c2ccccc2)c1C(=O)N[C@@H]1C(=O)N2[C@@H]1SC(C)(C)[C@@H]2C(=O)O [OXA, oxacillin]",128,128,≥ 128,≥ 128,> 2,≥ 128,≥ 64,128,–,–,–,–
"CCCOC(=O)c1cc(O)c(O)c(O)c1 [Propyl gallate, propyl gallate]",512,> 1020,> 1020,512,> 1020,512,> 1020,> 1020,–,256,128,"fold decrease of bacitracin MBC by antioxidant (MRSA (ATCC 33593); MRSA, antioxidant 0.5 μg/ml, compared to bacitracin alone): 8 fold; MIC (MRSA (ATCC 33593); MRSA, antioxidant alone): 512 µg/mL; MIC (MRSA (ATCC 33593); Staphylococcus aureus, MRSA, antioxidant alone, read-out: MIC): 256 µg/mL; growth of MRSA with bacitracin plus antioxidant [3]: significantly inhibited the growth of MRSA; MIC (MSSA (ATCC 29213); [14]): 128 µg/mL; fold decrease of bacitracin MBC by antioxidant (MSSA (ATCC 29213); antioxidant 0.5 μg/ml, compared to bacitracin alone): 16 fold; MIC (MSSA (ATCC 29213)): 64 µg/mL"
"CCCCCCCCCCCCCCCCCCOC(=O)c1cc(O)c(O)c(O)c1 [Stearyl gallate (SG), stearyl gallate]",> 1020,> 1020,> 1020,> 1020,> 1020,> 1020,> 1020,> 1020,completely inhibited the growth of USA300,–,–,"bactericidal activity in combination with bacitracin (MRSA USA300 (BAA-1680) [1]): killing effect was not as significant as OG, LG, and BG; MIC (MRSA USA300 (BAA-1680) [1]; [12]): 1020 µg/mL; MBC (MRSA USA300 (BAA-1680) [1]; [13]): 2050 µg/mL"
